Laboratory results from the NIST ThermoML archive (doi:10.1016/j.jct.2011.05.018).

Experiment: xn = mol fraction of the nth substance listed
Details: 101 kPa, Liquid; for viscosity: Capillary tube (Ostwald / Ubbelohde) method; for speed of sound: Pulse-echo method; for mass density: Pycnometric method

COc1ccc(C=O)cc1 [4-methoxybenzaldehyde] + Cc1ccccc1O
Details | mass density [kg/m3] | speed of sound [m/s] | viscosity [mPa·s]
303.15 K, x1 = 0.0875 | 1039.2 | 1507.7 | 7.163
303.15 K, x1 = 0.1774 | 1044.2 | 1526.3 | 6.824
303.15 K, x1 = 0.2699 | 1050.1 | 1545.5 | 6.519
303.15 K, x1 = 0.3651 | 1058.5 | 1565 | 6.202
303.15 K, x1 = 0.4631 | 1067.1 | 1585.2 | 5.778
303.15 K, x1 = 0.564 | 1074.3 | 1611.2 | 5.319
303.15 K, x1 = 0.668 | 1081.3 | 1637 | 4.811
303.15 K, x1 = 0.7753 | 1093.2 | 1658.9 | 4.261
303.15 K, x1 = 0.8859 | 1106.6 | 1681.5 | 3.758
303.15 K, x1 = 1 | 1125.2 | 1694.3 | 3.251
308.15 K, x1 = 0.0875 | 1033.8 | 1488.3 | 5.762
308.15 K, x1 = 0.1774 | 1038.2 | 1506.2 | 5.54
308.15 K, x1 = 0.2699 | 1043.4 | 1524.9 | 5.361
308.15 K, x1 = 0.3651 | 1050.6 | 1544.2 | 5.168
308.15 K, x1 = 0.4631 | 1058.4 | 1564 | 4.874
308.15 K, x1 = 0.564 | 1065 | 1589.4 | 4.56
308.15 K, x1 = 0.668 | 1071.5 | 1613.8 | 4.196
308.15 K, x1 = 0.7753 | 1082.8 | 1635.2 | 3.815
308.15 K, x1 = 0.8859 | 1095.3 | 1657.2 | 3.475
308.15 K, x1 = 1 | 1111.6 | 1670.7 | 3.131
313.15 K, x1 = 0.0875 | 1030.2 | 1470.7 | 4.162
313.15 K, x1 = 0.1774 | 1034.7 | 1486.3 | 4.072
313.15 K, x1 = 0.2699 | 1040.9 | 1502.6 | 4.007
313.15 K, x1 = 0.3651 | 1047.3 | 1519.6 | 3.936
313.15 K, x1 = 0.4631 | 1055.4 | 1536.9 | 3.806
313.15 K, x1 = 0.564 | 1062.1 | 1560.3 | 3.673
313.15 K, x1 = 0.668 | 1070 | 1580 | 3.494
313.15 K, x1 = 0.7753 | 1082.1 | 1598.1 | 3.291
313.15 K, x1 = 0.8859 | 1094.9 | 1617.6 | 3.126
313.15 K, x1 = 1 | 1109.5 | 1631.3 | 2.961
318.15 K, x1 = 0.0875 | 1026.3 | 1449.6 | 2.269
318.15 K, x1 = 0.1774 | 1031.9 | 1460.1 | 2.313
318.15 K, x1 = 0.2699 | 1038.3 | 1470.9 | 2.363
318.15 K, x1 = 0.3651 | 1044.3 | 1482.2 | 2.414
318.15 K, x1 = 0.4631 | 1052.8 | 1493.9 | 2.451
318.15 K, x1 = 0.564 | 1059.5 | 1511.3 | 2.496
318.15 K, x1 = 0.668 | 1067.7 | 1524.3 | 2.543
318.15 K, x1 = 0.7753 | 1078.8 | 1536.6 | 2.589
318.15 K, x1 = 0.8859 | 1090.1 | 1549.5 | 2.631
318.15 K, x1 = 1 | 1104.7 | 1557 | 2.682

Cc1cccc(O)c1 [3-methylphenol] + COc1ccc(C=O)cc1
x2 = 0
Details | mass density [kg/m3] | speed of sound [m/s] | viscosity [mPa·s]
303.15 K | 1025.8 | 1464.2 | 8.929
308.15 K | 1021.5 | 1449.3 | 7.412
313.15 K | 1017 | 1436.3 | 6.116
318.15 K | 1013.5 | 1424.2 | 5.019
